In ChEMBL document CHEMBL1201862, “PubChem BioAssay data set” (2004):
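Following 48 hours of exposure in 96-well plates, responses at five concentrations were used to interpolate endpoints linearly. GI50 is the concentration that inhibits growth by half.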 Active and inactive are the calls of the source. No stated cut-off is given here; in the data, active = GI50 up to about 1.1 µM and inactive = higher.

How the values were obtained:
Test in all cases: growth of human tumour cells (NCI), 48 h
SN12C = tested on: SN12C
MCF7 = tested on: MCF7
SF-268 = tested on: SF-268
A549 = tested on: A549
OVCAR-5 = tested on: OVCAR-5
786-0 = tested on: 786-0
OVCAR-4 = tested on: OVCAR-4
SNB-19 = tested on: SNB-19
SK-MEL-5 = tested on: SK-MEL-5
SF-295 = tested on: SF-295
SK-MEL-2 = tested on: SK-MEL-2
OVCAR-3 = tested on: OVCAR-3
NCI-H226 = tested on: NCI-H226
SR = tested on: SR
SK-MEL-28 = tested on: SK-MEL-28
NCI-H23 = tested on: NCI-H23
CAKI-1 = tested on: CAKI-1
SF-539 = tested on: SF-539
TK-10 = tested on: TK-10
MDA-MB-435 = tested on: MDA-MB-435

Measured: GI50

O=C(Cn1c(-c2ccccc2)cc2ccccc21)N1CCCC1
inactive: SN12C > 100 µM | MCF7 > 100 µM | SF-268 > 100 µM | A549 > 100 µM | OVCAR-5 > 100 µM | 786-0 > 100 µM | OVCAR-4 > 100 µM | SNB-19 > 100 µM | SK-MEL-5 63.2 µM | SF-295 > 100 µM | SK-MEL-2 > 100 µM | OVCAR-3 > 100 µM | NCI-H226 > 100 µM | SR > 100 µM

CCOC(=O)c1ccc(NC(=O)O/N=C(/Cl)CCl)cc1
inactive: SN12C 84.9 µM | MCF7 34.8 µM | SF-268 47.1 µM | SK-MEL-28 17.6 µM | A549 37.1 µM | NCI-H23 78.5 µM | OVCAR-5 86.7 µM | 786-0 > 100 µM | CAKI-1 > 100 µM | SF-539 69 µM | OVCAR-4 71.1 µM | SNB-19 86.1 µM | SK-MEL-5 31.6 µM | SF-295 30.8 µM | SK-MEL-2 60.5 µM | TK-10 28.4 µM | OVCAR-3 37.6 µM | SR 27.2 µM

CC1CN=C(N(C(=O)Nc2ccccc2)c2ccccc2)S1 (centres undefined)
inactive: SN12C 25.2 µM | MCF7 8.99 µM | SF-268 20.6 µM | SK-MEL-28 13.9 µM | A549 33.4 µM | NCI-H23 35.4 µM | OVCAR-5 90.4 µM | 786-0 39.5 µM | CAKI-1 27 µM | SF-539 > 10 µM | OVCAR-4 19.5 µM | SNB-19 88.1 µM | SK-MEL-5 16.7 µM | SF-295 37.9 µM | SK-MEL-2 20.8 µM | TK-10 20.6 µM | OVCAR-3 24.9 µM | SR 27.2 µM

O=c1ncccn1[C@@H]1O[C@H](CO)[C@H](O)C1O (some centres undefined)
inactive: SN12C > 77.1 µM | SF-268 71.8 µM | SK-MEL-28 > 100 µM | A549 > 89.5 µM | NCI-H23 > 100 µM | OVCAR-5 > 100 µM | 786-0 > 78 µM | CAKI-1 38.8 µM | SF-539 > 75.3 µM | OVCAR-4 > 100 µM | SNB-19 > 100 µM | SK-MEL-5 > 100 µM | SF-295 > 100 µM | SK-MEL-2 > 73.5 µM | TK-10 > 100 µM | OVCAR-3 > 100 µM | NCI-H226 > 100 µM | SR 43.6 µM

CCCCC(C)C(OC(=O)CC(CC(=O)O)C(=O)O)C(CC(C)CC(O)CCCCC(O)CC(O)C(C)N)OC(=O)CC(CC(=O)O)C(=O)O (centres undefined)
inactive: SN12C > 100 µM | SF-268 > 100 µM | SK-MEL-28 > 100 µM | A549 > 100 µM | NCI-H23 > 100 µM | OVCAR-5 > 100 µM | 786-0 > 100 µM | CAKI-1 > 100 µM | SF-539 > 100 µM | OVCAR-4 > 100 µM | SNB-19 > 100 µM | SK-MEL-5 > 100 µM | SF-295 > 100 µM | SK-MEL-2 > 100 µM | TK-10 > 100 µM | OVCAR-3 > 100 µM | NCI-H226 > 100 µM | SR > 100 µM

COc1cc(OC)c(OC)cc1/C=C/c1nc2ccccc2s1
inactive: MDA-MB-435 3.1 µM | SN12C > 100 µM | MCF7 82.4 µM | SF-268 > 100 µM | SK-MEL-28 > 100 µM | A549 > 100 µM | NCI-H23 86.5 µM | OVCAR-5 > 100 µM | 786-0 > 100 µM | SF-539 > 100 µM | SNB-19 > 100 µM | SK-MEL-5 > 100 µM | SF-295 67 µM | SK-MEL-2 > 100 µM | TK-10 98.2 µM | OVCAR-3 > 100 µM | NCI-H226 > 100 µM

NNC(=O)/C(=C/c1ccc(Cl)cc1Cl)NC(=O)c1ccccc1
inactive: SN12C > 100 µM | SF-268 > 100 µM | SK-MEL-28 > 100 µM | A549 > 100 µM | NCI-H23 > 100 µM | OVCAR-5 > 100 µM | 786-0 > 100 µM | CAKI-1 > 100 µM | SF-539 > 100 µM | OVCAR-4 > 100 µM | SNB-19 > 100 µM | SK-MEL-5 > 100 µM | SF-295 > 100 µM | SK-MEL-2 > 100 µM | TK-10 > 100 µM | OVCAR-3 > 100 µM | NCI-H226 > 100 µM | SR > 100 µM

COc1ccc(-n2c(=O)n(-c3ccccc3)c(=O)n2-c2ccc(OC)cc2)cc1
inactive: MDA-MB-435 > 100 µM | SN12C > 100 µM | MCF7 > 100 µM | SK-MEL-28 > 100 µM | A549 > 100 µM | NCI-H23 > 100 µM | OVCAR-5 > 100 µM | 786-0 > 100 µM | CAKI-1 1.78 µM | SF-539 > 100 µM | OVCAR-4 > 100 µM | SNB-19 > 100 µM | SK-MEL-5 > 100 µM | SF-295 > 100 µM | SK-MEL-2 > 100 µM | TK-10 > 100 µM | OVCAR-3 > 100 µM | NCI-H226 > 100 µM
